Data published in patent US20150133297A1, “NEW ANTIFUNGAL COMPOSITIONS” (DSM IP ASSETS B.V., priority 2012, published 2015).

Tested on: Botrytis cinerea
Experiment: Treatment of sweet peppers (Example 10)
Format: in vivo
Details: 20° C., 150 ppm spiroxamine or both
Method: Ten fresh, organic sweet peppers were used per treatment. Each sweet pepper was soaked in a 180 ppm hypochlorite solution for 10 minutes, then rinsed thoroughly with fresh tap water and dried. The peel of each disinfected sweet pepper was wounded once using a cork borer according to the method described by de Lapeyre de Bellaire and Dubois (1987). Subsequently, each wound was inoculated with 10 μl of a Botrytis cinerea suspension containing 1×10^5 of spores/ml. After incubation for 3 hours at 20° C., each wound and the skin area of 0.5 cm around the wound was treated with in total 75 μl of a freshly prepared aqueous antifungal composition comprising either 200 ppm natamycin (DSM Food Specialties, Delft, The Netherlands), 150 ppm spiroxamine or both. […]
The treated sweet peppers were incubated in a closed box in the dark at 20° C. and assessed on mould growth during incubation. The antifungal activity (in %) of the individual and combined active ingredients was determined by calculating the reduction in mould growth observed on the sweet peppers treated with the antifungal composition in comparison to the mould growth on the sweet peppers treated with the control composition according to the Colby method (Colby, 1967) as described in Example 5.

`CCCN(CC)CC1COC2(CCC(C(C)(C)C)CC2)O1` (centres unmarked) [Spiroxamine, spiroxamine] was tested, and the “Observed antifungal activity O (%)” value (day 12, 200 ppm natamycin) was 0% and the “Observed antifungal activity O (%)” value (day 13, 200 ppm natamycin) was 0%.
